Results on one compound are retold here after US11771707B2, “Pharmaceutical compositions and uses thereof” (SpineThera, priority 2016, dated 2023).

Data set [1] is described as follows: in vitro release of dexamethasone acetate from microspheres. Type of data set: physicochemical. On the procedure: The microspheres, and compositions comprising those microspheres, of the various embodiments described herein are analyzed using USP methods known in the art to determine, among other things, the pH of the compositions, the in vitro release of API, and the impurities present. […] Without wishing to be bound by theory, it can be reasonably expected that dexamethasone acetate will release continuously over about 84 days in vitro, with about 20% of the drug released in 3 days, 50% in 25 days, and 90% in 60 days. It will be understood that the release profile may be adjusted by one or more of the following, including combinations: increasing or decreasing drug to polymer ratio; increasing or decreasing polymer molecular weight; increasing or decreasing particle size; increasing or decreasing polymer degradation time (by decreasing or increasing glycolic acid content); or increasing or decreasing hydrophilicity of microsphere surface.

The conditions of data set [2]: brain; cited from earlier work.
Data set [3] can be described thus: in vitro release in 1% C-TAB buffer at pH 3.5. Type of data set: physicochemical. The source says:
Without wishing to be bound by theory, pharmaceutical compositions of the type described herein are not expected to elicit any significant or appreciable degree of inflammatory response or cause necrosis. Histological examination may reveal the microspheres to be localized and agglomerated within the epidural space at the site of injection with no evidence of the presence of the injection vehicle after about 2 days. Contents of the treated epidural pocket can be recovered by dissection. It can be reasonably expected that dexamethasone acetate will be released continuously over approximately 45 days under in vitro conditions of 1% C-TAB buffer at pH 3.5, with <20% of the drug released in 1 day, 30-60% in 7 days, 60-85% in 28 days and not less than 85% in 45 days, with complete microsphere polymer degradation in about 16 weeks/112 days.

Molecules are shown by their SMILES.

Turning to `CC(=O)OCC(=O)[C@@]1(O)[C@H](C)C[C@H]2[C@@H]3CCC4=CC(=O)C=C[C@]4(C)[C@@]3(F)[C@@H](O)C[C@@]21C` [dexamethasone acetate, 9 alpha-fluoro-11-beta, 17-alpha, 21-trihydroxy-16 alpha-methylpregna-1,4-diene-3,20-dione 21-acetate], the “period of continuous release” value in data set [1] is “about 84 days”; in data set [3] (1% C-TAB buffer pH 3.5) it was “approximately 45 days”. For the same compound, the drug released entry in data set [1] (in 3 days) is “about 20%”; in data set [1] (in 25 days) it was approximately 50%; in data set [1] (in 60 days) it was approximately 90%; in data set [3] (1% C-TAB buffer pH 3.5, in 1 day), less than 20%; in data set [3] (1% C-TAB buffer pH 3.5, in 7 days) it was 30-60%; in data set [3] (1% C-TAB buffer pH 3.5, in 28 days), 60-85%. Also, the drug released result in data set [3] (1% C-TAB buffer pH 3.5, in 45 days) is given as “not less than 85%”. For the same compound, in data set [2], the “anti-inflammatory effect and tissue water content” value was “anti-inflammatory effect in the brain without reducing tissue water content”.
